Like-named read-outs stand apart in the source and are kept apart here.
Key:
Assay type in all cases: physicochemical
[1] = Thermodynamic aqueous solubility; details: water, 25 °C, water, thermodynamic from solid, water, 25° C., 24 hours; at the pH of the next column; read-out: Aqueous solubility mg/mL free form
Method: The suspension was equilibrated at 25° C. for 24 hours then the pH was measured. The suspension was then filtered through a glass fibre C filter. […] Different volumes of the standard, diluted and undiluted sample solutions were injected.

[2] = Long-term and accelerated stability studies of Form I (Example 6)
Method: The storage conditions include the long-term storage condition of 25±2° C./60±5% RH, the intermediate storage condition of 30±2° C./65±5% RH, and the accelerated storage condition of 40±±2° C./75±±5% RH.

[3] = Solubility of Formula I Form I in solvents, gravimetric analysis of mother liquors (Example 1); details: organic solvent or mixture, thermodynamic from solid
Method: The solubility was calculated by gravimetric analysis after evaporation of the mother liquors collected.

[4] = Solubility of Form I in aqueous media by HPLC (Example 4); details: thermodynamic from solid, 22° C.
Method: (§1) The vials were shaken. After 1 hr, a sample (˜0.5 ml) was removed via syringe, and filtered through a syringe filter (0.2 micron) into a second vial. 200 μl of each solution was then transferred into an HPLC vial and made up to 1 ml by adding 800 μl of diluent. These samples were analyzed directly by HPLC, and the response was outside the linearity range. Therefore a second dilution was performed, taking 0.1 ml of each sample and making up to 2 ml with diluent. The samples were re-analyzed by HPLC. Then after shaking the suspensions for 18 hours in total, a second sample was taken as above. All samples were then diluted and analyzed by HPLC, as above. The temperature was noted (22° C.), and no gelling was observed.

[5] = Solubility of Form I in organic solvents by HPLC (Example 4); details: 22 °C, thermodynamic from solid
Method: as §1
The above procedure was repeated but using 8 different organic solvents in place of the aqueous media (analysis only after 18 hrs). Solvents used were acetonitrile, diethyl ether, ethanol, ethyl acetate, isopropanol, methanol, heptane and THF. All solvents gave suspensions at 100 mg/ml, except methanol which dissolved at 100 mg in 0.3 ml. […] These experiments were sampled once after 18 hours of slurrying.

[6] = Gravimetric vapour sorption (GVS)
Method: The Gravimetric sorption isotherms were obtained using a Hiden IGASorp moisture sorption analyser, controlled by CFRSorp software. The sample temperature was maintained at 25° C. by a Huber re-circulating water bath. The humidity was controlled by mixing streams of dry and wet nitrogen, with a total flow rate of 250 ml/min. The relative humidity (RH) was measured by a calibrated Vaisala RH probe (dynamic range of 0-95% RH), located near the sample. The weight change, (mass relaxation) of the sample as a function of % RH was constantly monitored by the microbalance (accuracy 0.001 mg). Typically 10-20 mg of sample was placed in a tared mesh stainless steel basket at room temperature. The sample was loaded and unloaded at 40% RH and 25° C. (typical room conditions). The standard isotherm was performed at 25° C. at 10% RH intervals over a 0-90% RH range.

[7] = Stability to humidity on storage (form by XRPD)
[8] = aqueous media, aqueous buffer, Aqueous pH 6.8
[9] = aqueous media, simulated gastric fluid, Aqueous pH 1.2
[10] = aqueous medium, aqueous buffer, Aqueous pH 4
[11] = aqueous medium, aqueous buffer, Aqueous pH 5

solubility at 24 h [1]: 15 mg/mL | Stability on storage ([2]; about 25° C. and about 60% relative humidity for about 24 months): stable | Stability on storage ([2]; about 40° C. and about 75% relative humidity for about 6 months): stable | Stability on storage ([2]; accelerated storage condition 40° C./75% RH, 3 months): chemical and physical stability | Stability on storage ([2]; long-term storage condition 25° C./60% RH, up to 3 months): chemical and physical stability | solubility ([3]; 55 °C, MeOH (boiling point 65), 10° C. below reflux, read-out: Solubility at high temperature): > 250 mg/mL | solubility ([3]; 56 °C, THF (boiling point 66), 10° C. below reflux, read-out: Solubility at high temperature): 6 mg/mL | solubility ([3]; 67 °C, Ethyl Acetate (boiling point 77), 10° C. below reflux, read-out: Solubility at high temperature): 2 mg/mL | solubility ([3]; 68 °C, EtOH (boiling point 78), 10° C. below reflux, read-out: Solubility at high temperature): 212 mg/mL | solubility ([3]; 70 °C, MEK (boiling point 80), 10° C. below reflux, read-out: Solubility at high temperature): 4 mg/mL | solubility ([3]; 71 °C, Acetonitrile (boiling point 81), 10° C. below reflux, read-out: Solubility at high temperature): 48 mg/mL | solubility ([3]; 79 °C, IPA (boiling point 89), 10° C. below reflux, read-out: Solubility at high temperature): 22 mg/mL | solubility ([3]; 79 °C, Isopropyl Acetate (boiling point 89), 10° C. below reflux, read-out: Solubility at high temperature): 4 mg/mL | solubility ([3]; 88 °C, 1-propanol (boiling point 98), 10° C. below reflux, read-out: Solubility at high temperature): 160 mg/mL | solubility ([3]; 107 °C, MIBK (boiling point 117), 10° C. below reflux, read-out: Solubility at high temperature): 5 mg/mL | solubility ([3]; 1-propanol, 5° C., read-out: Solubility at 5° C. temperature): 8 mg/mL | solubility ([3]; Acetone, 5° C., read-out: Solubility at 5° C. temperature): 5 mg/mL | solubility ([3]; Acetonitrile, 5° C., read-out: Solubility at 5° C. temperature): 17 mg/mL | solubility ([3]; EtOH, 5° C., read-out: Solubility at 5° C. temperature): 24 mg/mL | solubility ([3]; Ethyl Acetate, 5° C., read-out: Solubility at 5° C. temperature): 1 mg/mL | solubility ([3]; IPA, 5° C., read-out: Solubility at 5° C. temperature): 5 mg/mL | solubility ([3]; Isopropyl Acetate, 5° C., read-out: Solubility at 5° C. temperature): 4 mg/mL | solubility ([3]; MEK, 5° C., read-out: Solubility at 5° C. temperature): 3 mg/mL | solubility ([3]; MIBK, 5° C., read-out: Solubility at 5° C. temperature): 6 mg/mL | solubility ([3]; MeOH, 5° C., read-out: Solubility at 5° C. temperature): > 250 mg/mL | solubility ([3]; THF, 5° C., read-out: Solubility at 5° C. temperature): 4 mg/mL | solubility at 1 h ([4]; aqueous media, aqueous buffer, Aqueous pH 3): 28.4 mg/mL | solubility at 1 h [4, 8]: 34 mg/mL | solubility at 18 h [4, 8]: 35.4 mg/mL | solubility at 1 h [4, 9]: 31.6 mg/mL | solubility at 18 h [4, 9]: 33.2 mg/mL | solubility at 18 h ([4]; aqueous medium, aqueous buffer, Aqueous pH 3): 28 mg/mL | solubility at 1 h [4, 10]: 28.1 mg/mL | solubility at 18 h [4, 10]: 27.8 mg/mL | solubility at 1 h [4, 11]: 18.6 mg/mL | solubility at 18 h [4, 11]: 27.9 mg/mL | solubility at 18 h ([5]; organic solvent or mixture, Acetonitrile): 1.36 mg/mL | solubility at 18 h ([5]; organic solvent or mixture, Diethyl ether): 0.01 mg/mL | solubility at 18 h ([5]; organic solvent or mixture, Ethanol): 35.5 mg/mL | solubility at 18 h ([5]; organic solvent or mixture, Ethyl acetate): 0.04 mg/mL | solubility at 18 h ([5]; organic solvent or mixture, Heptane): 0.003 mg/mL | solubility at 18 h ([5]; organic solvent or mixture, Isopropanol): 1.15 mg/mL | solubility at 18 h ([5]; organic solvent or mixture, Methanol): 481 mg/mL | solubility at 18 h ([5]; organic solvent or mixture, THF): 0.05 mg/mL | solubility at 18 h ([5]; Water): 28.2 mg/mL | Stability to humidity GVS uptake ([6]; 25° C.): 1.0% | GVS mass increase ([6]; relative humidity from about 0% to about 95%, di(4-methylbenzenesulfonate)): less than 1% | Stability to humidity 25° C./92% RH ([7]; 25° C./92% RH): unchanged | Stability to humidity 40° C./75% RH ([7]; 40° C./75% RH): unchanged
Compound: COc1cc2c(cc1OC)[C@H]1C[C@@H](OC(=O)[C@@H](N)C(C)C)[C@H](CC(C)C)CN1CC2.Cc1ccc(S(=O)(=O)O)cc1.Cc1ccc(S(=O)(=O)O)cc1 [Form I, (S)-(2R,3R,11bR)-3-isobutyl-9,10-dimethoxy-2,3,4,6,7,11b-hexahydro-1H-pyrido[2,1-a]isoquinolin-2-yl 2-amino-3-methylbutanoate di(4-methylbenzenesulfonate)]

— patent publication US10844058B2, “Valbenazine salts and polymorphs thereof” (Neurocrine Biosciences, Inc., priority 2015, dated 2020)
